# ± gives the standard deviation of the averaged measurements.
# What was measured:
# Experiment in all cases: LOEC (log10 uM (lowest observed effect concentration))
# [1] = compound: C=CC(=O)OCC(F)(F)C(F)(F)C(F)(F)C(F)(F)COC(=O)C=C [1H,1H,6H,6H-Perfluorohexane-1,6-diol diacrylate]
# Method: (§1)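 BioMAP Diversity Plus panel in human primary cell co-cultures, 4 concentrations in duplicate blinded samples. Responses are log10 fold change versus DMSO control, processed with tcpl v2.1.0. A hit is called when responses at any concentration exceed the cutoff (the larger of 3*bmad or log10(1.2)); the lowest observed effect concentration (modl_ga, log10 uM) is reported for hits.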
# [2] = compound: FC(F)(I)C(F)(F)C(F)(F)C(F)(F)C(F)(F)C(F)(F)I [1,6-Diiodoperfluorohexane]
# Method: as §1
# [3] = compound: O=C(CC(=O)C(F)(F)C(F)(F)C(F)(F)F)c1cccs1 [(Perfluorobutyryl)-2-thenoylmethane]
# Method: as §1
# Perfluoropinacol = compound: OC(C(F)(F)F)(C(F)(F)F)C(O)(C(F)(F)F)C(F)(F)F [Perfluoropinacol]
# Method: as §1
# [4] = compound: OCC(F)(F)C(F)(F)C(F)(F)C(F)(F)C(F)(F)C(F)(F)C(F)(F)C(F)(F)C(F)(F)C(F)(F)C(F)(F)F [11:1 Fluorotelomer alcohol]
# Method: as §1
# [5] = compound: OCC(F)(F)C(F)(F)C(F)(F)C(F)(F)C(F)(F)C(F)(F)C(F)(F)C(F)(F)CO [1H,1H,10H,10H-Perfluorodecane-1,10-diol]
# Method: as §1
# [6] = compound: OCCC(F)(F)C(F)(F)C(F)(F)C(F)(F)C(F)(F)C(F)(F)C(F)(F)C(F)(F)F [8:2 Fluorotelomer alcohol]
# Method: as §1
# [7] = compound: OCCCC(F)(F)C(F)(F)C(F)(F)C(F)(F)C(F)(F)C(F)(F)C(F)(F)C(F)(F)F [3-(Perfluorooctyl)propanol]
# Method: as §1
# [8] = compound: O=C(O)C(F)(F)C(F)(F)C(F)(F)C(F)(F)C(F)(F)C(F)(F)C(F)(F)F [Ammonium perfluorooctanoate]
# Method: as §1
# Perfluorooctanoic acid = compound: O=C(O)C(F)(F)C(F)(F)C(F)(F)C(F)(F)C(F)(F)C(F)(F)C(F)(F)F [Perfluorooctanoic acid]
# Method: as §1
# [9] = compound: C=CC(=O)OCC(F)(F)C(F)(F)C(F)(F)C(F)(F)C(F)(F)C(F)(F)C(F)(F)C(F)F [1H,1H,9H-Perfluorononyl acrylate]
# Method: as §1
# Methotrexate = compound: CN(Cc1cnc2nc(N)nc(N)c2n1)c1ccc(C(=O)N[C@@H](CCC(=O)O)C(=O)O)cc1 [Methotrexate]
# Method: as §1
# [10] = compound: FC(F)(F)C(F)(F)C(F)(F)C(F)(F)CCI [1H,1H,2H,2H-Perfluorohexyl iodide]
# Method: as §1
# [11] = compound: O=S(=O)(OCC(F)(F)F)C(F)(F)C(F)(F)C(F)(F)C(F)(F)F [2,2,2-Trifluoroethyl perfluorobutanesulfonate]
# Method: as §1
# [12] = compound: OCC(F)(F)C(F)(F)C(F)(F)C(F)(F)C(F)(F)C(F)(F)F [6:1 Fluorotelomer alcohol]
# Method: as §1
# [13] = compound: Cc1ccc(S(=O)(=O)OCC(F)(F)C(F)(F)C(F)(F)C(F)(F)C(F)(F)C(F)F)cc1 [1H,1H,7H-Perfluoroheptyl 4-methylbenzenesulfonate]
# Method: as §1
Test System,LOEC (log10 uM) [1],LOEC (log10 uM) [2],LOEC (log10 uM) [3],LOEC (log10 uM) (Perfluoropinacol),LOEC (log10 uM) [4],LOEC (log10 uM) [5],LOEC (log10 uM) [6],LOEC (log10 uM) [7],LOEC (log10 uM) [8],LOEC (log10 uM) (Perfluorooctanoic acid),LOEC (log10 uM) [9],LOEC (log10 uM) (Methotrexate),LOEC (log10 uM) [10],LOEC (log10 uM) [11],LOEC (log10 uM) [12],LOEC (log10 uM) [13]
IMphg CD40 down,1.3,1.3,1.3,1.3,0.301,1.54 ± 0.34,1.78,1.3,,,,,,,,
BE3C IP10 down,1.78,1.54 ± 0.34,1.3,1.3,,1.3,1.07 ± 0.32,1.3,1.78,1.78,,,,,,
BT xIL17F up,,,,,-1.22,,,,,,,,,,,
BT xIL6 down,0.845,1.78,1.54 ± 0.34,,,1.78,1.78,1.54 ± 0.34,,,1.54 ± 0.34,,,,,
SAg Proliferation down,0.845,1.3,0.845,1.3,-0.96 ± 0.37,,1.3,1.3,,,1.3,0.477,1.78,,,
BF4T tPA down,1.3,0.845,0.573 ± 0.39,,,1.3,1.07 ± 0.32,1.3,,1.31 ± 0.66,,,,,,
hDFCGF TIMP2 down,1.07 ± 0.32,,1.07 ± 0.32,1.3,,,0.801 ± 0.71,1.3,,,,,1.78,,,
CASM3C VCAM1 down,0.845,1.3,1.54 ± 0.34,1.78,,1.78,1.07 ± 0.32,1.07 ± 0.32,,,1.07 ± 0.32,,,,,
hDFCGF CollagenIII up,,,,,-0.699,,,,,,,,,,,
IMphg IL8 up,,,1.78,1.07 ± 0.32,,,1.78,,1.78,1.78,,,,,,
SAg PBMCCytotoxicity down,1.07 ± 0.32,1.3,1.78,,-1.22,1.78,1.3,1.3,,,1.54 ± 0.34,,,,,
BE3C MMP1 up,1.3,,,,,,,,1.3,1.78,,,,,,
hDFCGF ITAC down,0.301,0.845,1.3,0.801 ± 0.71,,1.78,1.3,0.845,,,1.54 ± 0.34,,1.78,1.78,,
BF4T VCAM1 down,0.845,1.3,1.3,1.78,,1.3,1.07 ± 0.32,1.3,,,,,,,,
LPS IL1a down,1.3,1.3,,,-0.222,,1.3,0.845,,,,,,1.54 ± 0.34,,
IMphg VCAM1 down,1.3,1.3,1.54 ± 0.34,1.54 ± 0.34,,1.78,1.78,1.3,,,,,,,,
4H Pselectin down,1.07 ± 0.32,1.3,1.3,1.3,,,1.3,1.3,,,,,,,1.78,
3C Thrombomodulin down,,,,,,,,1.78,,,1.54 ± 0.34,,,,,
3C SRB down,1.3,1.3,1.3,1.3,-0.222,,1.3,1.3,,,,,,,,1.78
MyoF VCAM1 down,0.845,0.573 ± 0.39,,1.78,,1.78,1.3,1.07 ± 0.32,,,1.78,,,,,
BF4T MCP1 down,1.3,0.845,1.07 ± 0.32,1.78,,1.07 ± 0.32,1.3,1.3,,,,,,,,1.3
MyoF ACTA1 down,0.845,0.573 ± 0.39,,1.3,,1.78,1.3,1.07 ± 0.32,,,1.78,,,,,

Test System,LOEC (log10 uM) [1],LOEC (log10 uM) [2],LOEC (log10 uM) [3],LOEC (log10 uM) (Perfluoropinacol),LOEC (log10 uM) [4],LOEC (log10 uM) [5],LOEC (log10 uM) [6],LOEC (log10 uM) [7],LOEC (log10 uM) [8],LOEC (log10 uM) (Perfluorooctanoic acid),LOEC (log10 uM) [9],LOEC (log10 uM) (Methotrexate),LOEC (log10 uM) [10],LOEC (log10 uM) [11],LOEC (log10 uM) [12],LOEC (log10 uM) [13]
BE3C uPAR down,1.78,1.78,1.78,1.3,,1.78,1.54 ± 0.34,1.78,,,,,,,,
BT xIL17A down,0.845,1.78,1.3,1.3,,1.78,1.78,1.3,,,1.54 ± 0.34,,,,,
4H Pselectin up,,,,,,,,,,,,,,,,1.78
hDFCGF CollagenI up,,,,,-1.22,,,,,,,,,,,
SAg CD40 down,1.07 ± 0.32,1.78,0.845,1.3,,,1.54 ± 0.34,1.54 ± 0.34,,,1.78,,,,,
CASM3C Proliferation down,1.3,0.845,0.801 ± 0.71,1.3,,1.78,1.3,1.3,,,,,,,1.78,
BE3C MMP9 down,1.54 ± 0.34,1.78,1.3,1.78,-0.222,1.78,1.3,1.78,,,,,,,,
hDFCGF Proliferation down,0.301,0.301,0.845,0.845,,1.54 ± 0.34,0.845,0.845,,,1.3,,,,1.78,
MyoF CollagenIII down,1.3,0.845,1.3,1.3,,1.78,1.3,1.3,,,1.78,,,,,
3C IL8 up,,,,,,,,,,1.78,,,,,,
LPS TNFa down,1.3,1.3,,,,,1.78,0.573 ± 0.39,,,,,,1.78,,
BE3C HLADR down,1.3,1.54 ± 0.34,1.3,1.78,-0.46 ± 0.34,1.3,1.3,1.78,,,,,,,,
IMphg SRB.Mphg down,,1.3,1.78,1.78,-0.222,1.54 ± 0.34,1.78,1.07 ± 0.32,,,,,,,,
IMphg MIP1a down,,1.54 ± 0.34,,,,1.78,,1.54 ± 0.34,,,,,,1.54 ± 0.34,,
SAg SRB down,1.3,1.78,1.3,1.3,,,1.3,1.3,,,,,,,,1.78
hDFCGF MCSF down,0.573 ± 0.39,0.845,,1.3,,1.78,1.3,0.845,,,1.54 ± 0.34,,,,1.78,
BF4T Eotaxin3 down,1.78,1.3,0.845,1.3,,1.78,1.3,1.54 ± 0.34,,,,,,,,
MyoF CollagenIV up,,,,1.3,,,,,1.78,1.78,,,,,,
3C Proliferation down,0.573 ± 0.39,1.3,0.845,0.845,-0.96 ± 0.37,1.04 ± 1,1.3,0.845,,,1.3,,,,1.78,
IMphg IL10 down,1.3,0.845,1.3,1.3,,1.54 ± 0.34,1.07 ± 0.32,1.3,,1.78,,,,,,1.07 ± 0.32
hDFCGF MCP1 down,0.845,0.845,1.3,,,1.54 ± 0.34,1.3,0.845,,,,,,,,1.07 ± 0.32
BT PBMCCytotoxicity up,,,,,,,,,,1.78,,,,,,

Test System,LOEC (log10 uM) [1],LOEC (log10 uM) [2],LOEC (log10 uM) [3],LOEC (log10 uM) (Perfluoropinacol),LOEC (log10 uM) [4],LOEC (log10 uM) [5],LOEC (log10 uM) [6],LOEC (log10 uM) [7],LOEC (log10 uM) [8],LOEC (log10 uM) (Perfluorooctanoic acid),LOEC (log10 uM) [9],LOEC (log10 uM) (Methotrexate),LOEC (log10 uM) [10],LOEC (log10 uM) [11],LOEC (log10 uM) [12],LOEC (log10 uM) [13]
hDFCGF MIG down,0.301,0.845,1.3,1.78,,1.78,1.3,1.07 ± 0.32,,,1.54 ± 0.34,,1.78,,,
BT xIL17F down,0.573 ± 0.39,1.54 ± 0.34,1.3,1.54 ± 0.34,,1.78,1.78,1.3,,,1.3,,,,1.78,
IMphg CD69 down,1.78,1.78,0.845,1.07 ± 0.32,,1.78,1.54 ± 0.34,1.78,,,,,,,,
BT PBMCCytotoxicity down,0.845,1.78,1.78,1.78,-0.199 ± 0.71,1.78,1.54 ± 0.34,1.54 ± 0.34,,,1.3,,,,,
BT Bcell Proliferation up,,,,,,,,,,1.78,,,,,,
BT sIgG down,0.845,1.78,1.3,0.845,,1.78,1.78,1.78,,,,0,,,,
4H Eotaxin3 down,1.3,1.3,1.3,1.3,,,1.54 ± 0.34,1.3,,,,,1.78,,,
BE3C MIG down,1.78,1.78,1.3,1.78,,1.78,1.54 ± 0.34,1.78,,,,,,,1.78,
BT xTNFa down,0.301,1.3,1.3,1.78,,1.78,1.54 ± 0.34,1.3,,,1.3,,,,1.78,
BE3C IL8 down,1.3,1.78,1.78,1.3,-0.222,1.54 ± 0.34,1.3,1.3,,,,,,,,
LPS CD69 down,1.3,1.78,,1.07 ± 0.32,,,1.07 ± 0.32,1.54 ± 0.34,1.78,,,,,,,
IMphg MCP1 down,1.31 ± 0.66,1.3,1.3,1.3,,1.78,1.78,1.3,,,,,,,,
hDFCGF IP10 down,0.301,0.845,1.3,1.3,,1.78,1.3,0.845,,,1.78,,,1.78,1.78,
hDFCGF VCAM1 down,0.301,0.845,,1.3,,1.54 ± 0.34,1.3,0.845,,,1.3,,1.78,,1.78,
LPS IL8 up,,,,,,,,,,1.78,,,,,,
BT Bcell Proliferation down,0.845,1.54 ± 0.34,1.3,1.54 ± 0.34,-0.96 ± 0.37,1.78,1.78,1.3,,,1.78,0,,,,
BT xIL2 down,0.845,1.54 ± 0.34,1.78,1.78,,1.78,1.3,1.78,,,,,,,,
hDFCGF CollagenIII down,,0.845,1.3,1.78,,1.78,1.3,1.3,1.78,,,,,,1.31 ± 0.66,
IMphg ESelectin up,,,,,0.0396 ± 0.37,,,,,,,,,,,
MyoF MMP1 up,,,,1.78,,,,,,,1.78,,,,,
LPS PGE2 up,,,,1.3,-0.722 ± 0.71,,,,,,,,,,,

# From the supplement of paper PMC10331698
